From paper PMC4965013, “Open Source Drug Discovery with the Malaria Box Compound Collection for Neglected Diseases and Beyond” (PLoS Pathogens, 2016)
pEC50: −log10 of the molar value. One block for each compound: values may come before it.

Legend:
[1] = system: P. falciparum 3D7 trophozoites; assay: Metabolomic fingerprint profiling LC-MS; assay type: cell-based, Plasmodium falciparum; set-up: UDP-D-glucose / ADP-D-glucose: unit not given here; conditions: for Acetyllysine / N-acetyl-L-ornithine / N-carbamoyl-L-aspartate / NADPH / dAMP / dCMP / dTDP / dTMP / dTTP / dihydroorotate / orotate / DLH / DLS/SDL/SID / PD / PEE / PVNF / 3-phosphoglycerate / ADP-D-glucose / ATP / CDP / D-sedoheptulose-1/7-phosphate / FAD / GMP / NAD+ / NADP+ / Octoluse Bisphosphate / Pyroglutamic acid / UDP-D-glucose / UDP-D-glucuronate / UDP-N-acetyl-glucosamine / UDP / UMP / UTP / a-ketoglutarate / citrate/isocitrate / cytidine / dATP / dGMP/AMP / fumarate / glucose-1/6-phosphate / glycerate / guanine / guanosine / hypoxanthine / indole / inosine / nicotinate / ornithine / phosphoenolpyruvate / pyruvate / ribose-phosphate / sarcosine/alanine / sn-glycerol-3-phosphate / succinate/methylmalonic acid / uridine / xanthosine: S2 Table Metabolomics; for Acetyllysine: metabolite Acetyllysine; for N-acetyl-L-ornithine: metabolite N-acetyl-L-ornithine; for N-carbamoyl-L-aspartate: metabolite N-carbamoyl-L-aspartate; for NADPH: metabolite NADPH; for dAMP: metabolite dAMP; for dCMP: metabolite dCMP; for dTDP: metabolite dTDP; for dTMP: metabolite dTMP; for dTTP: metabolite dTTP; for dihydroorotate: metabolite dihydroorotate; for orotate: metabolite orotate; for DLH: peptide DLH; for DLS/SDL/SID: peptide DLS/SDL/SID; for PD: peptide PD; for PEE: peptide PEE; for PVNF: peptide PVNF; for 3-phosphoglycerate: metabolite 3-phosphoglycerate; for ADP-D-glucose: metabolite ADP-D-glucose; for ATP: metabolite ATP; for CDP: metabolite CDP; for CDP / D-sedoheptulose-1/7-phosphate / GMP / Octoluse Bisphosphate / UDP / UMP / UTP / citrate/isocitrate / dGMP/AMP / fumarate / glucose-1/6-phosphate / glycerate / guanine / guanosine / inosine / pyruvate / sarcosine/alanine / succinate/methylmalonic acid / uridine / xanthosine: change in metabolite level after compound treatment; for D-sedoheptulose-1/7-phosphate: metabolite D-sedoheptulose-1/7-phosphate; for FAD: metabolite FAD; for GMP: metabolite GMP; for NAD+: metabolite NAD+; for NADP+: metabolite NADP+; for Octoluse Bisphosphate: metabolite Octoluse Bisphosphate; for Pyroglutamic acid: metabolite Pyroglutamic acid; for UDP-D-glucose: metabolite UDP-D-glucose; for UDP-D-glucuronate: metabolite UDP-D-glucuronate; for UDP-N-acetyl-glucosamine: metabolite UDP-N-acetyl-glucosamine; for UDP: metabolite UDP; for UMP: metabolite UMP; for UTP: metabolite UTP; for a-ketoglutarate: metabolite a-ketoglutarate; for citrate/isocitrate: metabolite citrate/isocitrate; for cytidine: metabolite cytidine; for dATP: metabolite dATP; for dGMP/AMP: metabolite dGMP/AMP; for fumarate: metabolite fumarate; for glucose-1/6-phosphate: metabolite glucose-1/6-phosphate; for glycerate: metabolite glycerate; for guanine: metabolite guanine; for guanosine: metabolite guanosine; for hypoxanthine: metabolite hypoxanthine; for indole: metabolite indole; for inosine: metabolite inosine; for 2_3-Diphosphoglyceric acid / 4-phosphopantothenate / 6-phospho-D-gluconate / FMN / IMP / Pyrophosphate / Sedoheptoluse bisphosphate / cyclic-AMP / glutathione disulfide / lactate / myo-inositol: metabolite level change after treatment; for nicotinate: metabolite nicotinate; for ornithine: metabolite ornithine; for phosphoenolpyruvate: metabolite phosphoenolpyruvate; for pyruvate: metabolite pyruvate; for ribose-phosphate: metabolite ribose-phosphate; for sarcosine/alanine: metabolite sarcosine/alanine; for sn-glycerol-3-phosphate: metabolite sn-glycerol-3-phosphate; for succinate/methylmalonic acid: metabolite succinate/methylmalonic acid; for uridine: metabolite uridine; for xanthosine: metabolite xanthosine
[2] = system: P. falciparum; assay: EC50 listed in S2 Table Metabolomics (used to set the concentration tested); assay type: cell-based; conditions: Plasmodium falciparum; EC50 used for Factor_XEC50 in metabolomics; read-out: EC50_nM

pEC50 [2]: 6.40
SMILES: Cc1cccc(Nc2nc(N)c3ccccc3n2)c1 [MMV019110]
Acetyllysine [1]: -0.7861
N-acetyl-L-ornithine [1]: -0.3066
N-carbamoyl-L-aspartate [1]: 0.8718
NADPH [1]: 1.0636
dAMP [1]: 0.1705
dCMP [1]: -1.068
dTDP [1]: -0.2853
dTMP [1]: -0.4806
dTTP [1]: -0.142
dihydroorotate [1]: 1.069
orotate [1]: -0.7263
DLH [1]: -1.2334
DLS/SDL/SID [1]: -0.8825
PD [1]: -0.6502
PEE [1]: -0.294
PVNF [1]: -0.8541
3-phosphoglycerate [1]: 0.2769
ADP-D-glucose [1]: 0.08672
ATP [1]: 0.01278
CDP [1]: -0.4413
D-sedoheptulose-1/7-phosphate [1]: -0.5631
FAD [1]: -0.04154
GMP [1]: 0.0758
NAD+ [1]: -0.03841
NADP+ [1]: 0.1589
Octoluse Bisphosphate [1]: -0.09051
Pyroglutamic acid [1]: -0.4571
UDP-D-glucose [1]: -0.005349
UDP-D-glucuronate [1]: 0.1448
UDP-N-acetyl-glucosamine [1]: -0.09963
UDP [1]: -0.5337
UMP [1]: -0.1391
UTP [1]: -0.1864
a-ketoglutarate [1]: -0.9521
citrate/isocitrate [1]: -0.8432
cytidine [1]: 0.1554
dATP [1]: -0.04411
dGMP/AMP [1]: 0.02273
fumarate [1]: -0.3633
glucose-1/6-phosphate [1]: -0.2644
glycerate [1]: -1.224
guanine [1]: -1.026
guanosine [1]: -2.158
hypoxanthine [1]: -0.00849
indole [1]: -0.09763
inosine [1]: -0.6039
2_3-Diphosphoglyceric acid [1]: -0.1372
4-phosphopantothenate [1]: -0.5707
6-phospho-D-gluconate [1]: -0.1735
FMN [1]: 0.07582
IMP [1]: -0.3382
Pyrophosphate [1]: -0.02007
Sedoheptoluse bisphosphate [1]: -0.1834
cyclic-AMP [1]: -0.2741
glutathione disulfide [1]: -0.5227
lactate [1]: -1.008
myo-inositol [1]: -1.363
nicotinate [1]: -1.278
ornithine [1]: 0.0513
phosphoenolpyruvate [1]: 0.03081
pyruvate [1]: -1.488
ribose-phosphate [1]: -0.08015
sarcosine/alanine [1]: -0.6413
sn-glycerol-3-phosphate [1]: -0.02952
succinate/methylmalonic acid [1]: -0.4318
uridine [1]: -1.131
xanthosine [1]: -0.9126

pEC50 [2]: 6.93
SMILES: CCOc1ccc(-c2nonc2NC(=O)c2cccc(C)c2)cc1OCC [MMV665805]
Acetyllysine [1]: -2.655
N-acetyl-L-ornithine [1]: -3.165
N-carbamoyl-L-aspartate [1]: -1.056
NADPH [1]: 0.0179
dAMP [1]: -0.2659
dCMP [1]: -0.0001746
dTDP [1]: -0.4156
dTMP [1]: 0.168
dTTP [1]: -1.808
dihydroorotate [1]: -0.8461
orotate [1]: -0.316
DLH [1]: -3.43
DLS/SDL/SID [1]: -2.376
PD [1]: -4.256
PEE [1]: -1.272
PVNF [1]: -3.291
3-phosphoglycerate [1]: -0.4238
ADP-D-glucose [1]: -0.07023
ATP [1]: -0.872
CDP [1]: 0.2433
D-sedoheptulose-1/7-phosphate [1]: 0.2738
FAD [1]: -1.216
GMP [1]: -1.407
NAD+ [1]: -0.2783
NADP+ [1]: 0.09325
Octoluse Bisphosphate [1]: -2.628
Pyroglutamic acid [1]: 0.2488
UDP-D-glucose [1]: -0.08929
UDP-D-glucuronate [1]: 0.1004
UDP-N-acetyl-glucosamine [1]: -0.1333
UDP [1]: 0.1418
UMP [1]: -2.433
UTP [1]: -1.276
a-ketoglutarate [1]: 0.06268
citrate/isocitrate [1]: -0.7764
cytidine [1]: -0.5056
dATP [1]: -1.548
dGMP/AMP [1]: 0.3312
fumarate [1]: -2.16
glucose-1/6-phosphate [1]: -1.496
glycerate [1]: -1.128
guanine [1]: -1.378
guanosine [1]: -1.192
hypoxanthine [1]: 0.2303
indole [1]: 0.06669
inosine [1]: -2.254
2_3-Diphosphoglyceric acid [1]: -1.518
4-phosphopantothenate [1]: -1.982
6-phospho-D-gluconate [1]: -1.236
FMN [1]: -1.528
IMP [1]: -1.238
Pyrophosphate [1]: -1.477
Sedoheptoluse bisphosphate [1]: -1.741
cyclic-AMP [1]: -2.892
glutathione disulfide [1]: -1.641
lactate [1]: -4.838
myo-inositol [1]: -5.977
nicotinate [1]: -0.4798
ornithine [1]: -0.1601
phosphoenolpyruvate [1]: 0.09842
pyruvate [1]: -2.577
ribose-phosphate [1]: -0.0001746
sarcosine/alanine [1]: -2.25
sn-glycerol-3-phosphate [1]: -0.6654
succinate/methylmalonic acid [1]: -1.698
uridine [1]: -2.032
xanthosine [1]: 0.4761

pEC50 [2]: 6.58
SMILES: Cc1cc(C=C2SC(=Nc3ccccc3)N(C3CCCC3)C2=O)c(C)n1-c1ccc(Cl)cc1 [MMV666688]
Acetyllysine [1]: -0.1624
N-acetyl-L-ornithine [1]: -0.0421
N-carbamoyl-L-aspartate [1]: 1.4864
NADPH [1]: 0.2408
dAMP [1]: 0.03218
dCMP [1]: -0.069
dTDP [1]: -0.4979
dTMP [1]: -0.4157
dTTP [1]: -0.4815
dihydroorotate [1]: 2.242
orotate [1]: -0.3391
DLH [1]: -0.1014
DLS/SDL/SID [1]: -0.07676
PD [1]: 0.01194
PEE [1]: -0.1091
PVNF [1]: -0.1399
3-phosphoglycerate [1]: -0.02892
ADP-D-glucose [1]: -0.07639
ATP [1]: -0.1967
CDP [1]: -0.456
D-sedoheptulose-1/7-phosphate [1]: -0.2168
FAD [1]: -0.003318
GMP [1]: 0.2544
NAD+ [1]: -0.2173
NADP+ [1]: -0.08704
Octoluse Bisphosphate [1]: -0.1579
Pyroglutamic acid [1]: 0.04307
UDP-D-glucose [1]: -0.04445
UDP-D-glucuronate [1]: -0.08539
UDP-N-acetyl-glucosamine [1]: -0.1189
UDP [1]: -0.6253
UMP [1]: -0.03143
UTP [1]: -0.1882
a-ketoglutarate [1]: 0.009693
citrate/isocitrate [1]: -0.05943
cytidine [1]: 0.03268
dATP [1]: 0.7542
dGMP/AMP [1]: -0.3421
fumarate [1]: -0.03259
glucose-1/6-phosphate [1]: 0.01665
glycerate [1]: 0.07227
guanine [1]: 0.07709
guanosine [1]: 0.1849
hypoxanthine [1]: 0.08201
indole [1]: 0.1358
inosine [1]: 0.04909
2_3-Diphosphoglyceric acid [1]: -0.2563
4-phosphopantothenate [1]: -0.1327
6-phospho-D-gluconate [1]: -0.08404
FMN [1]: -0.1061
IMP [1]: -0.002655
Pyrophosphate [1]: 0.3465
Sedoheptoluse bisphosphate [1]: -0.1911
cyclic-AMP [1]: -0.1214
glutathione disulfide [1]: -0.05112
lactate [1]: 0.01618
myo-inositol [1]: 0.01299
nicotinate [1]: -0.0155
ornithine [1]: -0.1088
phosphoenolpyruvate [1]: -0.02123
pyruvate [1]: 0.008296
ribose-phosphate [1]: -0.004186
sarcosine/alanine [1]: -0.1822
sn-glycerol-3-phosphate [1]: 0.09746
succinate/methylmalonic acid [1]: -0.05454
uridine [1]: -0.08058
xanthosine [1]: 0.111
